Columns and labels:
[1] = molecular target: T1, chemically synthesized HIV protease (Human immunodeficiency virus type 1 group M subtype B, UniProt P12497, C555A/C583A); assay type: biochemical; conditions: for Residual Activity (%) 1 mM: inhibitor 1 mM
T1 construct: The HIV protease was chemically synthesized; made in house; host or cells: chemical peptide synthesis, no expression host
Protocol: The HIV protease was chemically synthesized by replacement of two cysteine residues in the natural sequence [Science, 230, 349 (1985)] with alanine residues. The reaction mixture contained 100 mM MES buffer (pH 5.5), 40 mM of substrate (Ac-[…]NH2 trifluoro-acetate), inhibitors at varying concentrations dissolved in DMSO and 9.2 μg of the HIV protease in a total volume of 15 μl. Incubation was carried out at 37° C. for 60 min. The reaction was started by the addition of the enzyme and terminated by 15 μl of acetonitrile. The amount of a fragment peptide produced was measured by reversed-phase HPLC analysis using an internal standerd. The HPLC condition was as followes.
Solvent A: 0.1% trifluoroacetic acid aqueous solution
Gradient: B was increased in 1.0%/min from 100% of A,

recombinant HIV protease = recombinant HIV protease (Human immunodeficiency virus type 1 group M subtype B, UniProt P12497); conditions: inhibitor 5 μM (final concentration), 2.0 μg enzyme

CC(C)(C)OC(=O)N[C@@H](CC(N)=O)C(=O)N[C@@H](Cc1ccccc1)[C@@H](O)C(=O)NCC1CCCCC1 [Example 1, Boc-Asn-(2R,3S)-AHPBA-NH--CH2 --C6 H11]
Residual Activity (%) 1 mM [1]: 32.8%

CC(C)(C)OC(=O)N[C@@H](Cc1ccccc1)C(=O)N[C@@H](CC(N)=O)C(=O)N[C@@H](Cc1ccccc1)[C@@H](O)C(=O)NCC1CCCCC1 [Example 2, Boc-Phe-Asn-(2R,3S)-AHPBA-NH--CH2 --C6 H11]
Residual Activity (%) 1 mM [1]: 19.5%

CC(C)(C)OC(=O)N[C@@H](CC(N)=O)C(=O)N[C@@H](Cc1ccccc1)[C@H](O)C(=O)NCC1CCCCC1 [Example 3, Boc-Asn-(2S,3S)-AHPBA-NH--CH2 --C6 H11]
Residual Activity (%) 1 mM [1]: 52.9%

CC(C)(C)OC(=O)N[C@@H](Cc1ccccc1)C(=O)N[C@@H](CC(N)=O)C(=O)N[C@@H](Cc1ccccc1)[C@H](O)C(=O)NCC1CCCCC1 [Example 4, Boc-Phe-Asn-(2S,3S)-AHPBA-NH--CH2 --C6 H11]
Residual Activity (%) 1 mM [1]: 20.3%

CC(C)(C)OC(=O)N[C@@H](CO)C(=O)N[C@@H](Cc1ccccc1)[C@@H](O)C(=O)NCC1CCCCC1 [Example 5, Boc-Ser-(2R,3S)-AHPBA-NH--CH2 --C6 H11]
Residual Activity (%) 1 mM [1]: 82.9%

CC(C)(C)OC(=O)N[C@@H](Cc1ccccc1)C(=O)N[C@@H](CO)C(=O)N[C@@H](Cc1ccccc1)[C@@H](O)C(=O)NCC1CCCCC1 [Example 6, Boc-Phe-Ser-(2R,3S)-AHPBA-NH--CH2 --C6 H11]
Residual Activity (%) 1 mM [1]: 33.3%

CC(C)(C)OC(=O)N[C@@H](CO)C(=O)N[C@@H](Cc1ccccc1)[C@H](O)C(=O)NCC1CCCCC1 [Example 7, Boc-Ser-(2S,3S)-AHPBA-NH--CH2 --C6 H11]
Residual Activity (%) 1 mM [1]: 15.6%

CC(C)(C)OC(=O)N[C@@H](Cc1ccccc1)C(=O)N[C@@H](CO)C(=O)N[C@@H](Cc1ccccc1)[C@H](O)C(=O)NCC1CCCCC1 [Example 8, Boc-Phe-Ser(2S,3S)-AHPBA-NH--CH2 --C6 H11]
Residual Activity (%) 1 mM [1]: 47.0%

NC(=O)C[C@H](N)C(=O)N[C@@H](Cc1ccccc1)[C@@H](O)C(=O)NCC1CCCCC1 [Example 9, H-Asn-(2R,3S)-AHPBA-NH--CH2 --C6 H11]
Residual Activity (%) 1 mM [1]: 92.1%

NC(=O)C[C@H](NC(=O)[C@@H](N)Cc1ccccc1)C(=O)N[C@@H](Cc1ccccc1)[C@@H](O)C(=O)NCC1CCCCC1 [Example 10, H-Phe-Asn-(2R,3S)-AHPBA-NH--CH2 --C6 H11]
Residual Activity (%) 1 mM [1]: 43.4%

NC(=O)C[C@H](NC(=O)[C@@H](N)Cc1ccccc1)C(=O)N[C@@H](Cc1ccccc1)[C@H](O)C(=O)NCC1CCCCC1 [Example 11, H-Phe-Asn-(2S,3S)-AHPBA-NH--CH2 --C6 H11]
Residual Activity (%) 1 mM [1]: 16.4%

N[C@@H](CO)C(=O)N[C@@H](Cc1ccccc1)[C@@H](O)C(=O)NCC1CCCCC1 [Example 12, H-Ser-(2R,3S)-AHPBA-NH--CH2 --C6 H11]
Residual Activity (%) 1 mM [1]: 89.7%

N[C@@H](Cc1ccccc1)C(=O)N[C@@H](CO)C(=O)N[C@@H](Cc1ccccc1)[C@@H](O)C(=O)NCC1CCCCC1 [Example 13, H-Phe-Ser-(2R,3S)-AHPBA-NH--CH2 --C6 H11]
Residual Activity (%) 1 mM [1]: 58.9%

N[C@@H](CO)C(=O)N[C@@H](Cc1ccccc1)[C@H](O)C(=O)NCC1CCCCC1 [Example 14, H-Ser-(2S,3S)-AHPBA-NH--CH2 --C6 H11]
Residual Activity (%) 1 mM [1]: 95.5%

N[C@@H](Cc1ccccc1)C(=O)N[C@@H](CO)C(=O)N[C@@H](Cc1ccccc1)[C@H](O)C(=O)NCC1CCCCC1 [Example 15, H-Phe-Ser-(2S,3S)-AHPBA-NH--CH2 --C6 H11]
Residual Activity (%) 1 mM [1]: 23.8%

CC[C@H](C)[C@H](NC(=O)[C@@H]1CCCN1C(=O)[C@@H](O)[C@H](Cc1ccccc1)NC(=O)OC(C)(C)C)C(=O)OC1CCCCC1 [Example 28, Boc-(2S,3S)-AHPBA-Pro-Ile-O--C6 H11]
Residual Activity (%) 1 mM [1]: 63.9%

CC[C@H](C)[C@H](NC(=O)[C@@H]1CCCN1C(=O)[C@H](O)[C@H](Cc1ccccc1)NC(=O)OC(C)(C)C)C(=O)OC1CCCCC1 [Example 29, Boc-(2R,3S)-AHPBA-Pro-Ile-O--C6 H11]
Residual Activity (%) 1 mM [1]: 88.3%

CC[C@H](C)[C@H](NC(=O)[C@@H]1CCCN1C(=O)[C@@H](O)[C@H](Cc1ccccc1)NC(=O)OC(C)(C)C)C(=O)NCC1CCCCC1 [Example 30, Boc-(2S,3S)-AHPBA-Pro-Ile-NH--CH2 --C6 H11]
Residual Activity (%) 1 mM [1]: 23.4%

CC[C@H](C)[C@H](NC(=O)[C@@H]1CCCN1C(=O)[C@H](O)[C@H](Cc1ccccc1)NC(=O)OC(C)(C)C)C(=O)NCC1CCCCC1 [Example 31, Boc-(2R,3S)-AHPBA-Pro-Ile-NH--CH2 --C6 H11]
Residual Activity (%) 1 mM [1]: 47.4%

CC[C@H](C)[C@H](NC(=O)[C@@H]1CCCN1C(=O)[C@@H](O)[C@H](Cc1ccccc1)NC(=O)[C@H](CC(N)=O)NC(=O)OCc1ccccc1)C(=O)NCC1CCCCC1 [Example 32, Benzyloxycarbonyl-Asn-(2S,3S)-AHPBA-Pro-Ile-NH--CH2 --C6 H11]
Residual Activity (%) 5 μM ([1]; inhibitor 5 μM (final concentration)): 4.0%
residual enzymic activity (recombinant HIV protease): 11.0%

Boc-(2S,3S)-AHPBA-(cHexm)Gly-Ile-NH--CH2 --C6 H11 [Example 33]
Residual Activity (%) 1 mM [1]: 85.6%

H-Val-Val-(2R,3S)-AHPBA-(D)-Phe-(D)-Val-(D)-Val-NH2 [Example 23]
Residual Activity (%) 1 mM [1]: 28.3%
